Measured values reported in patent publication US9815787B2, “Sulfonamide derivative or pharmaceutically acceptable acid addition salt thereof” (UNIVERSITY OF TSUKUBA, priority 2013, dated 2017).

Biological target: T1, OX2R (Homo sapiens, UniProt O43614)
T1 construct: expressed in transfected cells; host or cells: CHO (Chinese hamster ovary) cells constitutively expressing the OX2R gene and NFAT-luciferase (CHOOX2R)
T1 sequence (O43614 1-444): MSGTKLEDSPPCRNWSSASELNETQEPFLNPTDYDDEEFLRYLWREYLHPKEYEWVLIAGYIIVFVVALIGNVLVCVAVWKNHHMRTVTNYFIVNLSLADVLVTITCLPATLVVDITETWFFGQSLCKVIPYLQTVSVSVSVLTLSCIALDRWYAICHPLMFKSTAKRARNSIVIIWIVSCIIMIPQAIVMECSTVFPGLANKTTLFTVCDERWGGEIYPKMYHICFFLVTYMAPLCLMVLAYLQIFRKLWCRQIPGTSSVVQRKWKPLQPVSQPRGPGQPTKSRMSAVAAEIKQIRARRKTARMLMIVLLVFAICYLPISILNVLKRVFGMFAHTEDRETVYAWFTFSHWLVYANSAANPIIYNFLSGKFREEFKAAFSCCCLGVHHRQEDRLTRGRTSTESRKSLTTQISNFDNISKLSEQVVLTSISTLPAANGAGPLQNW
Test: Evaluation of agonist activity against OX2R (CHOOX2R cells, Fura2AM fluorescence, FDSS3000)
Format: cell-based
Description: Evaluation of Agonist Activity Against OX2R
NFAT-luciferase gene and OX2R gene were each constitutively expressed in CHO cell, which is a cell line derived from Chinese hamster ovary to establish a cell line (CHOOX2R). The cells thereof were sown on a 96 well plate at 10000 cells/well, and cultured in a 5% FBS-added DMEM medium for 48 hr. […] After washing, HEPES buffer (75 μL) was added, a test compound solution (25 μL) was added, and changes in the fluorescence intensity were measured by FDSS3000 (Hamamatsu Photonics K.K.). The test compound was dissolved in DMSO (final concentration of DMSO was 1%), and diluted with HEPES buffer to a final concentration of 0.1 μM, 1.0 μM or 10 μM.

[1] = test compound 0.1 μM; CHOOX2R cells; relative to orexin-A as full agonist (100%)
[2] = test compound 1.0 μM; CHOOX2R cells; relative to orexin-A as full agonist (100%)
[3] = test compound 10 μM; CHOOX2R cells; relative to orexin-A as full agonist (100%)
[4] = test compound 0.1 μM; relative to orexin-A as full agonist (100%); CHOOX2R cells
[5] = test compound 1.0 μM; relative to orexin-A as full agonist (100%); CHOOX2R cells
[6] = test compound 10 μM; relative to orexin-A as full agonist (100%); CHOOX2R cells
[7] = OX2R agonist activity; CHOOX2R cells
[8] = conversion with orexin-A as full agonist (maximum agonist activity 100%)

| Structure (SMILES) | Response (0.1 μM (%)) [1] [%] | Response (1.0 μM (%)) [2] [%] | Response (10 μM (%)) [3] [%] | Response (0.1 μM (%)) [4] [%] | Response (1.0 μM (%)) [5] [%] | Response (10 μM (%)) [6] [%] | EC50 [7] [nM] | Emax [8] [%] |
| --- | --- | --- | --- | --- | --- | --- | --- | --- |
| COc1ccc(-c2cccc(C(=O)N3CCC3)c2)cc1S(=O)(=O)Nc1cccc(NCCNC(=O)c2ccccc2Cl)c1 [Example 82, N-(2-((3-(3′-(azetidine-1-carbonyl)-4-methoxy-[1,1′-biphenyl]-3-ylsulfonamido)phenyl)amino)ethyl)-2-chlorobenzamide] | <5 | 51 | 74 | – | – | – | – | – |
| COc1ccccc1C(=O)NCCNc1cccc(NS(=O)(=O)c2cc(-c3cc(F)ccc3F)ccc2OC)c1 [Example 19, N-(2-((3-(2′,5′-difluoro-4-methoxy-[1,1′-biphenyl]-3-ylsulfonamide)phenyl)amino)ethyl)-2-methoxybenzamide] | – | – | – | <5 | 8 | 143 | – | – |
| COc1ccccc1C(=O)NCCNc1cccc(NS(=O)(=O)c2cc(-c3cccc(C(=O)N4CCCCC4)c3)ccc2OC)c1 [Example 80, 2-methoxy-N-(2-((3-(4-methoxy-3′-(piperidine-1-carbonyl)-1-[1,1′-biphenyl]-3-ylsulfonamido)phenyl)amino)ethyl)benzamide] | 37 | 91 | 91 | – | – | – | – | – |
| COc1ccc(-c2cccc(C(=O)N3CCCC3)c2)cc1S(=O)(=O)Nc1cccc(NCCNC(=O)c2ccccc2Cl)c1 [Example 87, 2-chloro-N-(2-((3-(4-methoxy-3′-(pyrrolidine-1-carbonyl)-[1,1′-biphenyl]-3-ylsulfonamido)phenyl)amino)ethyl)benzamide] | 42 | 90 | 80 | – | – | – | – | – |
| COc1ccc(F)c(-c2ccc(OC)c(S(=O)(=O)Nc3cccc(NCCNC(=O)c4ccccc4OC)c3)c2)c1 [Example 34, N-(2-((3-(2′-fluoro-4,5′-dimethoxy-[1,1′-biphenyl]-3-ylsulfonamide)phenyl)amino)ethyl)-2-methoxybenzamide] | 13 | 64 | 123 | – | – | – | – | – |
| COc1ccc(-c2cccc(C(=O)N3CCC3)c2)cc1S(=O)(=O)Nc1cccc(NCCNC(=O)c2cccc(F)c2)c1 [Example 84, N-(2-((3-(3′-(azetidine-1-carbonyl)-4-methoxy-[1,1′-biphenyl]-3-ylsulfonamido)phenyl)amino)ethyl)-3-fluorobenzamide] | 7 | 58 | 70 | – | – | – | – | – |
| COc1ccc(-c2cccc(C(=O)N(C)C)c2)cc1S(=O)(=O)Nc1cccc(NCCNC(=O)c2ccoc2C)c1 [Example 67, N-(2-((3-(3′-(dimethylcarbamoyl)-4-methoxy-[1,1′-biphenyl]-3-ylsulfonamido)phenyl)amino)ethyl)-2-methylfuran-3-carboxamide] | 55 | 96 | 76 | – | – | – | – | – |
| COc1cccc(C(=O)NCCNc2cccc(NS(=O)(=O)c3cc(-c4cccc(C(=O)N(C)C)c4)ccc3OC)c2)c1 [Example 41, 4′-methoxy-3′-(N-(3-((2-(3-methoxybenzamido)ethyl)amino)phenyl)sulfamoyl)-N,N-dimethyl-[1,1′-biphenyl]-3-carboxamide] | 70 | 107 | 115 | – | – | – | 33 | 57 |
| COc1cccc(C(=O)NCCNc2cccc(NS(=O)(=O)c3cc(-c4cccc(OC)n4)ccc3OC)c2)c1 [Example 95, 3-methoxy-N-(2-((3-(2-methoxy-5-(6-methoxypyridin-2-yl)phenylsulfonamido)phenyl)amino)ethyl)benzamide] | <5 | <5 | 30 | – | – | – | – | – |
| COc1cc(C)c(-c2cccc(C(=O)N(C)C)c2)cc1S(=O)(=O)Nc1cccc(NCCNC(=O)c2ccccc2Cl)c1 [Example 104, 5′-(N-(3-((2-(2-chlorobenzamido)ethyl)amino)phenyl)sulfamoyl)-4′-methoxy-N,N,2′-trimethyl-[1,1′-biphenyl]-3-carboxamide] | – | – | – | 67 | 88 | 86 | – | – |
| COc1ccc(-c2ccccc2F)cc1S(=O)(=O)Nc1cccc(NCCNC(=O)c2ccccc2O)c1 [Example 6, N-(2-((3-(2′-fluoro-4-methoxy-[1,1′-biphenyl]-3-ylsulfonamide)phenyl)amino)ethyl)-2-hydroxybenzamide] | – | – | – | <5 | <5 | 7 | – | – |
| COc1cccc(C(=O)NCCNc2cccc(NS(=O)(=O)c3cc(-c4cccc(Cl)c4)ccc3OC)c2)c1 [Example 29, N-(2-((3-(3′-chloro-4-methoxy-[1,1′-biphenyl]-3-ylsulfonamide)phenyl)amino)ethyl)-3-methoxybenzamide] | – | – | – | <5 | 16 | 73 | 800 | 54 |
| COc1ccc(-c2cccc(C(=O)N(C)C)c2)cc1S(=O)(=O)Nc1cccc(NCCNC(=O)c2ccccc2F)c1 [Example 43, 3′-(N-(3-((2-(2-fluorobenzamido)ethyl)amino)phenyl)sulfamoyl)-4′-methoxy-N,N-dimethyl-[1,1′-biphenyl]-3-carboxamide] | <5 | 55 | 94 | – | – | – | 300 | 94 |
| COc1cc(C)c(-c2cccc(C(=O)N(C)C)c2)cc1S(=O)(=O)Nc1cccc(NCCNC(=O)c2sccc2Cl)c1 [Example 105, 3-chloro-N-(2-((3-(3′-(dimethylcarbamoyl)-4-methoxy-6-methyl-[1,1′-biphenyl]-3-ylsulfonamido)phenyl)amino)ethyl)thiophene-2-carboxamide] | – | – | – | 78 | 84 | 79 | – | – |
| COc1ccc(-c2cccc(C(=O)N(C)C)c2)cc1S(=O)(=O)Nc1cccc(NCCNC(=O)c2occc2C)c1 [Example 68, N-(2-((3-(3′-(dimethylcarbamoyl)-4-methoxy-[1,1′-biphenyl]-3-ylsulfonamido)phenyl)amino)ethyl)-3-methylfuran-2-carboxamide] | 42 | 86 | 74 | – | – | – | – | – |
| COc1ccccc1C(=O)NCCNc1cccc(NS(=O)(=O)c2cccc(-c3cccc(C(=O)N(C)C)c3)c2)c1 [Example 110, 3′-(N-(3-((2-(2-methoxybenzamido)ethyl)amino)phenyl)sulfamoyl)-N,N-dimethyl-[1,1′-biphenyl]-3-carboxamide] | – | – | – | <5 | <5 | 28 | – | – |
| COc1ccc(-c2cccc(C(=O)N(C)C)c2)cc1S(=O)(=O)Nc1cccc(NCCNC(=O)c2c(F)cccc2OC)c1 [Example 70, 3′-(N-(3-((2-(2-fluoro-6-methoxybenzamido)ethyl)amino)phenyl)sulfamoyl)-4′-methoxy-N,N-dimethyl-[1,1′-biphenyl]-3-carboxamide] | 34 | 105 | 85 | – | – | – | – | – |
| CNC(=O)c1cccc(-c2ccc(OC)c(S(=O)(=O)Nc3cccc(NCCNC(=O)c4ccccc4OC)c3)c2)c1 [Example 73, 4′-methoxy-3′-(N-(3-((2-(2-methoxybenzamido)ethyl)amino)phenyl)sulfamoyl)-N-methyl-[1,1′-biphenyl]-3-carboxamide] | 45 | 90 | 98 | – | – | – | 182 | 98 |
| COc1cccc(C(=O)NCCNc2cccc(NS(=O)(=O)c3cc(-c4cc(F)ccc4F)ccc3OC)c2)c1 [Example 20, N-(2-((3-(2′,5′-difluoro-4-methoxy-[1,1′-biphenyl]-3-ylsulfonamide)phenyl)amino)ethyl)-3-methoxybenzamide] | – | – | – | <5 | 13 | 180 | – | – |
| COc1ccccc1C(=O)NCCNc1cccc(NS(=O)(=O)c2cc(-c3ccccc3C(=O)N(C)C)ccc2OC)c1 [Example 79, 4′-methoxy-3′-(N-(3-((2-(2-methoxybenzamido)ethyl)amino)phenyl)sulfamoyl)-N,N-dimethyl-[1,1′-biphenyl]-2-carboxamide] | <5 | 18 | 34 | – | – | – | – | – |
